Like-named read-outs stand apart in the source and are kept apart here.
How the values were obtained:
[1] = system: HEK293 cells; assay: In-vitro cytotoxicity by the MTT method, HEK293 cells; details: 24 hrs
Method: (§1) The in-vitro cytotoxicity of Compounds 1, 12, and 17 was evaluated by the MTT method. HepG2, HEK293 and A549 cells in logarithmic growth phase were respectively trypsinized into a cell suspension. The cell density was adjusted to 5×10^4 cells/mL. 180 μL per well of the cell suspension was inoculated into a sterile 96-well plate at 37° C., and cultured in an incubator at 5% CO2 for 24 hrs. After the cells were attached to the bottom of the plate, 20 μL of the drug solutions over the concentration gradients were respectively added into each well, and 6 replicate wells were set in parallel. Also, a blank group (group without cells and drug) and a control group (group without drug) were set. The system was incubated in an incubator at 37° C. and 5% CO2 for 24 hrs, and then 20 μL per well of a 5 g/L MTT solution was added and incubated for another 4 hrs. After the incubation was completed, the culture medium in the well was gently aspirated, and 100 μL of DMSO was added to each well. Then the crystal was fully dissolved in a shaker for 10 min at a low speed. After that, the absorbency of each well was measured at OD490 nm in an enzymelinked immunodetector, and the survival rate of cells was calculated.

[2] = biological target: SARS-CoV-2 3CL^pro (Severe acute respiratory syndrome coronavirus 2 (2019-nCoV) (SARS-CoV-2), UniProt P0DTD1); assay: biochemical; details: for IC50: FRET
[3] = system: HepG2 cells; assay: In-vitro cytotoxicity by the MTT method, HepG2 cells; details: 24 hrs
Method: as §1

[4] = system: A549 cells; assay: In-vitro cytotoxicity by the MTT method, A549 cells; details: 24 hrs
Method: as §1

[5] = class symbols, read-out: IC50 (nM), inhibitory activity against 3CL^pro
[6] = non-linear regression, read-out: IC50 against 3CL^pro

What does the source list for `CCn1nnnc1Cn1c(=O)[nH]/c(=N\c2cc3cn(C)nc3cc2Cl)n(Cc2cc(F)c(F)cc2F)c1=O` [Compound 17]?
Survival rate of HEK293 cells ([1]; 1.5625 nM): 93.79%; Survival rate of HEK293 cells ([1]; 3.125 nM): 93.12%; Survival rate of HEK293 cells ([1]; 6.25 nM): 93.48%; Survival rate of HEK293 cells ([1]; 12.5 nM): 90.79%; Survival rate of HEK293 cells ([1]; 25 nM): 85.73%; Survival rate of HEK293 cells ([1]; 50 nM): 84.32%; Survival rate of HEK293 cells ([1]; 100 nM): 83.83%; Survival rate of HEK293 cells ([1]; 200 nM): 79.45%; Survival rate of HEK293 cells ([1]; 400 nM): 78.03%; IC50 [2, 5]: < 200 nM; IC50 [2, 6]: 160 nM; inhibition percentage of 3CL^pro ([2]; concentration 0.1 nM): 0.76%; inhibition percentage of 3CL^pro ([2]; concentration 1 nM): 1.93%; inhibition percentage of 3CL^pro ([2]; concentration 5 nM): 6.21%; inhibition percentage of 3CL^pro ([2]; concentration 10 nM): 7.67%; inhibition percentage of 3CL^pro ([2]; concentration 20 nM): 12.76%; inhibition percentage of 3CL^pro ([2]; concentration 30 nM): 17.92%; inhibition percentage of 3CL^pro ([2]; concentration 50 nM): 25.23%; inhibition percentage of 3CL^pro ([2]; concentration 100 nM): 44.76%; inhibition percentage of 3CL^pro ([2]; concentration 500 nM): 68.52%; inhibition percentage of 3CL^pro ([2]; concentration 1000 nM): 85.36%; Survival rate of HepG2 cells ([3]; 1.5625 nM): 95.56%; Survival rate of HepG2 cells ([3]; 3.125 nM): 95.79%; Survival rate of HepG2 cells ([3]; 6.25 nM): 94.43%; Survival rate of HepG2 cells ([3]; 12.5 nM): 91.02%; Survival rate of HepG2 cells ([3]; 25 nM): 90.46%; Survival rate of HepG2 cells ([3]; 50 nM): 87.13%; Survival rate of HepG2 cells ([3]; 100 nM): 83.85%; Survival rate of HepG2 cells ([3]; 200 nM): 80.42%; Survival rate of HepG2 cells ([3]; 400 nM): 76.13%; Survival rate of A549 cells ([4]; 1.5625 nM): 98.02%; Survival rate of A549 cells ([4]; 3.125 nM): 97.96%; Survival rate of A549 cells ([4]; 6.25 nM): 97.24%; Survival rate of A549 cells ([4]; 12.5 nM): 96.38%; Survival rate of A549 cells ([4]; 25 nM): 95.77%; Survival rate of A549 cells ([4]; 50 nM): 94.13%; Survival rate of A549 cells ([4]; 100 nM): 94.21%; Survival rate of A549 cells ([4]; 200 nM): 93.31%; Survival rate of A549 cells ([4]; 400 nM): 91.33%

Which IC50 [2, 5] does the source give for `Cn1cc2cc(/N=c3\[nH]c(=O)n(Cc4nnn[nH]4)c(=O)n3Cc3ccccc3)c(Cl)cc2n1` [Compound 2, (E)-3-((1H-tetrazol-5-yl)methyl)-1-benzyl-6-((6-chloro-2-methyl-2H-indazol-5-yl)imino)-1,3,5-triazin-2,4-dione] here?
The IC50 was 500 to 1000 nM.

How did the IC50 [2, 5] turn out when `COc1ccc(Cn2c(=O)n(Cc3nnn[nH]3)c(=O)[nH]/c2=N\c2cc3cn(C)nc3cc2Cl)cc1` [Compound 10] was run?
The IC50 was 200 to 500 nM.

Which IC50 [2, 5] does the source give for `CC(C)n1nnnc1Cn1c(=O)[nH]/c(=N\c2cc3cn(C)nc3cc2Cl)n(Cc2cc(F)c(F)cc2F)c1=O` [Compound 22] here?
Its IC50 is 200 to 500 nM.

For `Cn1cc2cc(/N=c3\[nH]c(=O)n(Cc4nnnn4C4CCC4)c(=O)n3Cc3cc(F)c(F)cc3F)c(Cl)cc2n1` [Compound 23], which IC50 [2, 5] is on record?
Its IC50 is 500 to 1000 nM.

How did the IC50 [2, 5] turn out when `CCn1nnnc1Cn1c(=O)[nH]/c(=N\c2ccc3nn(C)cc3c2)n(Cc2ccc([N+](=O)[O-])cc2)c1=O` [Compound 19] was run?
Its IC50 is 200 to 500 nM.

For `Cn1cc2cc(/N=c3\[nH]c(=O)n(Cc4nnn[nH]4)c(=O)n3Cc3ccc(C(C)(C)C)cc3)c(Cl)cc2n1` [Compound 4], which IC50 [2, 5] is on record?
The IC50 was 500 to 1000 nM.

With `Cn1cc2cc(/N=c3\[nH]c(=O)n(Cc4nnnn4C)c(=O)n3Cc3cc(F)c(F)cc3F)c(Cl)cc2n1` [Compound 16] as the compound, how does the IC50 [2, 5] read?
Its IC50 is < 200 nM.

What about the IC50 [2, 6] of the same compound?
The IC50 was < 200 nM.

How did the IC50 [2, 5] turn out when `Cc1ccc(Cn2c(Nc3cc4cn(C)nc4cc3Cl)nc(=O)n(Cc3nnn[nH]3)c2=O)cc1` [Compound 3, (E)-3-(1H-tetrazol-5-yl)methyl)-6-(6-chloro-2-methyl-2H-indazol-5-yl)imino)-1-(4-methylbenzyl)-1,3,5-triazin-2,4-dione] was run?
Its IC50 is 500 to 1000 nM.

How did the IC50 [2, 5] turn out when `CCn1nnnc1Cn1c(=O)[nH]/c(=N\c2cc3cn(C)nc3cc2Cl)n(Cc2ccc(C(F)(F)F)cc2)c1=O` [Compound 18] was run?
The IC50 was 200 to 500 nM.

With `Cn1cc2cc(/N=c3\[nH]c(=O)n(Cc4nnn[nH]4)c(=O)n3Cc3ccc(Br)cc3)c(Cl)cc2n1` [Compound 6] as the compound, how does the IC50 [2, 5] read?
Its IC50 is 200 to 500 nM.

Which IC50 [2, 5] does the source give for `Cn1cc2cc(/N=c3\[nH]c(=O)n(Cc4nnnn4C4CC4)c(=O)n3Cc3cc(F)c(F)cc3F)c(Cl)cc2n1` [Compound 21] here?
The IC50 was 200 to 500 nM.

Reference: patent publication US20230391736A1, “3-TETRAZOLYLMETHYL-1,3,5-TRIAZIN-2,4-DIONE COMPOUND INHIBITING CORONAVIRUS 3CL PROTEASE ACTIVITY AND PREPARATION METHOD AND USE THEREOF” (priority 2022, published 2023)
